From paper PMC12668308, “A Novel Antimalarial Agent that Inhibits Protein Synthesis in Plasmodium falciparum” (Angewandte Chemie (International Ed. in English), 2025)

Key:
[1] = test system: mRNA translation in NF54 trophozoite-stage parasites; test: Surface sensing of translation (SUnSET) assay; assay type: cell-based, Plasmodium falciparum; conditions: trophozoites 30–35 hpi; 31 at 3x, 50x, 100x IC50; 34 and pyrimethamine at 3x IC50
Protocol: To confirm the role of 31 as a translation inhibitor, the surface sensing of translation (SUnSET) assay was employed. This involves incubating the culture with a translation inhibitor, puromycin, a structural analogue of aminoacyl tRNA. Puromycin is incorporated in the nascent polypeptide chain and prevents further elongation. When puromcyin is used in sub‐lethal concentrations, incorporation of puromycin in neosynthesized protein correlates with the levels of mRNA translation (Figure 3c, lane2).^[ [27] ^] […] This trend was further confirmed by the quantified western blot signals (Figures 3d and S4C) that are consistent with the iSPP profiling results.
SUnSET: The SUnSET assay was done as described in. ^[27^]Tightly synchronized NF54 wild type parasites were treated with the compounds for 4h at 30-35 hpi (trophozoite stage). The following compounds and amounts used were: cycloheximide (3xIC50, 1,2 µM; Calbiochem), pyrimethamine (3xIC50, 21 nM; MedChemExpress), 34 (3xIC50, 12 µM), and 31 (3xIC50, 12 nM; 50xIC50, 200 nM; 100xIC50, 400 nM). Parasites were incubated with 1 µg mL^-1 (Sigma P8833) for 1 h at 37 °C and saponin lysis was performed.
Saponin lysis and Western blot: Saponin lysis was done on infected RBC at ~5% parasitemia to lyse erythrocytes. Parasite cultures were centrifuged at 1,200 g for 5 min at room temperature. Once the supernatant was discarded, 10 volumes of ice-cold 0.1% (w/v) saponin (Calbiochem 558255, dissolved in PBS, and filtered with 0,22) was added, incubated on ice for 10 min and centrifuged for 2,272 g for 15 min at 4 °C. […] The membrane was washed 3 times in PBS-T (3 min incubation in each washing step) and the signal was detected using the chemiluminescent substrate SuperSignal West Pico Plus (Thermo Scientific, REF 34580) and the imaging system Vilber Fusion FX7 Edge 17.10 SN. Quantification of Western blot signal was done by measuring the integrated density of each lane using ImageJ analysis software (version 1.54p). […]

[2] = test system: Dd2b2^pfmdr1 K1065N; assay type: cell-based, Plasmodium falciparum; conditions: Dd2b2^pfmdr1 K1065N vs Dd2b2^WT
Protocol: ^[a] 72-h [^3H] hypoxanthhine incorporation assay; Data is expressed as mean±s.d. The assay was performed in three independent biological experiments, each in biological duplicates
P. falciparum asexual blood stage parasites were cultured in human red blood cells (RBC, Blutspende SRK, Zurich) at a hematocrit of 5% in RPMI 1640 medium. The RPMI 1640 medium (ThermoFisher Scientific #51800−043) was supplemented with the following: 24 mM NaHCO3 (pH 7.3, Sigma-Aldrich #31437−500G-R), 25 mM Hepes (Sigma-Aldrich #H4034−500G), 0.36 mM hypoxanthine (Sigma-Aldrich # H9377−25G), 100 µg mL^-1 neomycin (Sigma-Aldrich #N6386−100G) and 0.5% Albumax II (Thermo Fisher #11021−045). Additionally, 2 mM choline chloride (279 mg/L, Sigma-Aldrich #C7527−100G) was added to the culture to block the induction of sexual commitment as described. ^[31^] The RPMI 1640 medium and components were dissolved in water (Milli-Q purified), stirred for at least 3 h, and then sterile filtered (0.22 μm pore size) with a bottle top filter (Corning # 431118). Parasite cultures were maintained in an atmosphere of 3% O2, 4% CO2, and 93% N2 in air-tight chambers at 37 °C. The [^3H]-hypoxanthine incorporation assay was used to test compound activity in the specific parasite lines as described.^[32^] Briefly, compounds were dissolved in DMSO (10 mM) and diluted in a hypoxanthine-free culture medium. A limiting dilution was performed over a 64-fold range (6-step twofold dilution) in a 96-well plate in duplicates. For every starting concentration, a limiting dilution was performed over a 64-fold range (6-step twofold dilution) in a 96-well plate in two biological duplicates. Parasites were added at 100 µL to each well containing the compound to obtain a final parasitemia of 0.3% and haematocrit of 1.25%. The plates were incubated for 48 h before 0.25 µCi of [^3H]-hypoxanthine was added per well for an additional 24 h. Parasites were harvested on a glass-fiber filter with a Microbeta FilterMate cell harvester (Perkin Elmer, Waltham, USA) and radioactivity was counted using a MicroBeta2 liquid scintillation counter (Perkin Elmer, Waltham, US). The results were recorded, processed by subtraction of the mean background signal obtained from the uninfected RBC controls and expressed as percentage of untreated controls. The fifty percent inhibitory concentration (IC50) was calculated by using nonlinear, four parameter (variable slope) curve fitting as described ^[33^] after importing into GraphPad Prism (version 8.3.0).

Compound | mRNA translation (puromycin incorporation) [1] | IC50 fold shift relative to parental clone [2]
O=C(Nc1cc(CN2CCOCC2)ccc1F)c1cccc(Oc2cc(C(F)(F)F)ccn2)c1 [Compound 34, N-(2-Fluoro-5-(morpholinomethyl)phenyl)-3-((4-(trifluoromethyl)pyridin-2-yl)oxy)benzamide] | did not reduce mRNA translation | 
CN1CCN(Cc2ccc(O)c(NC(=O)c3cccc(Oc4cc(C(F)(F)F)ccn4)c3)c2)CC1 [Compound 31, N-(2-hydroxy-5-((4-methylpiperazin-1-yl)methyl)phenyl)-3-((4-(trifluoromethyl)pyridin-2-yl)oxy)benzamide] | concentration‐dependent reduction in translation | 20.2
